The values that follow come from ChEMBL document CHEMBL1201862, “PubChem BioAssay data set” (2004).

The structures appear in SMILES notation.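 Briefly, cells in 96-well plates were exposed to five compound concentrations for 48 h, and endpoints were estimated by linear interpolation. GI50 = concentration required for 50% inhibition of growth.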 Activity calls are given as the source filed them. Rule as the data show it: active = GI50 up to about 1.1 µM and inactive = higher.

Test systems include Malme-3M; A549; MDA-MB-231; 786-0; HOP-62; CCRF-CEM; SK-MEL-28; SN12C; SK-OV-3; SW-620; K562; MCF7; NCI-H226; EKVX; LOX IMVI; KM12; NCI-H460; HCT-15; SF-539; RPMI-8226.
Assay in all cases: inhibition of tumour cell growth, NCI panel, 48 h

As to `COc1cc([C@@H]2c3cc4c(cc3C[C@H]3COC(=O)[C@@H]32)OCO4)cc(OC)c1OC` [DESOXYPODOPHYLLOTOXIN], the GI50 with Malme-3M is 0.0149 µM (active); in the assay on A549, 0.00885 µM (active); in the assay on MDA-MB-231, < 0.01 µM (active); in the assay on 786-0, 0.00372 µM (active); with HOP-62, 0.0127 µM (active); with CCRF-CEM it was 0.00865 µM (active). In addition, the GI50 was 0.0125 µM (active) in the assay with SK-MEL-28; 0.00995 µM (active) in the assay with SN12C; 0.0803 µM (active) in the assay on SK-OV-3; 0.0091 µM (active) in the assay on SW-620; 0.0074 µM (active) with K562; 0.00875 µM (active) in the assay on MCF7. The GI50 in the assay on NCI-H226 is 0.00733 µM (active); in the assay on EKVX, 0.005 µM (active).

As to `Cc1ccc(S(=O)(=O)N/N=C2\CC3C4CCC3C2C4)cc1` (configuration not stated), the GI50 in the assay with Malme-3M, in the assay on A549, with MDA-MB-231, in the assay on 786-0, in the assay with HOP-62 and with LOX IMVI was > 100 µM (inactive) each time. Moreover, the GI50 in the assay with CCRF-CEM, with SK-MEL-28, with SN12C, in the assay with SK-OV-3, with SW-620 and in the assay on KM12 was > 100 µM (inactive) in each case. Further, the GI50 with NCI-H460 is > 100 µM (inactive); in the assay with K562, > 100 µM (inactive); in the assay with MCF7, > 100 µM (inactive); with NCI-H226, > 100 µM (inactive); with EKVX, > 100 µM (inactive); in the assay with HCT-15, above 100 µM. In addition, in the assay with SF-539, the GI50 is > 100 µM (inactive).

Turning to `N#CCCSC(=S)C1CCCC1=N` (configuration not stated), the GI50 in the assay with Malme-3M, with A549, in the assay on MDA-MB-231, with 786-0, in the assay on HOP-62 and with SK-MEL-28 was > 100 µM (inactive) in each case. In addition, the GI50 with SN12C, with SK-OV-3, in the assay with SW-620, in the assay with KM12, in the assay on NCI-H460 and in the assay with K562 was > 100 µM (inactive) in each case. Further, the GI50 in the assay on MCF7 is > 100 µM (inactive); in the assay on RPMI-8226 it was > 100 µM (inactive); in the assay on NCI-H226 it was > 100 µM (inactive); with EKVX, > 100 µM (inactive); with HCT-15, above 100 µM; in the assay on SF-539, > 100 µM (inactive).

In the case of `CC(C#N)NCc1ccc(C(C)NC(C)C#N)cc1` (configuration not stated), the GI50 in the assay on Malme-3M was 96.6 µM (inactive); with A549 it was > 100 µM (inactive); with MDA-MB-231, > 100 µM (inactive); in the assay on 786-0, > 100 µM (inactive); in the assay with LOX IMVI, > 100 µM (inactive); in the assay with CCRF-CEM, > 100 µM (inactive). For the same molecule, the GI50 in the assay with SK-MEL-28, in the assay on SN12C, in the assay on SK-OV-3, in the assay with SW-620, in the assay with KM12 and in the assay with NCI-H460 was > 100 µM (inactive) throughout. The GI50 with K562 is > 100 µM (inactive); in the assay with MCF7, > 100 µM (inactive); in the assay with NCI-H226 it was > 100 µM (inactive); in the assay on EKVX, > 100 µM (inactive); in the assay on HCT-15, above 100 µM; with SF-539, > 100 µM (inactive).

In the case of `CC[n+]1cnc(N)c2c(-c3ccc(Cl)cc3)cn(-c3ccc(C)cc3)c21`, the GI50 in the assay with Malme-3M is 12.3 µM (inactive); in the assay on A549, 12.7 µM (inactive); in the assay on MDA-MB-231, 17 µM (inactive); in the assay on 786-0, 11.4 µM (inactive); in the assay with HOP-62, 16.8 µM (inactive); in the assay with LOX IMVI, 11.4 µM (inactive). The GI50 was 6.89 µM (inactive) with CCRF-CEM; 9.33 µM (inactive) with SK-MEL-28; 12.3 µM (inactive) in the assay on SN12C; 15.4 µM (inactive) in the assay on SK-OV-3; 15.3 µM (inactive) with SW-620; 15.8 µM (inactive) in the assay on KM12. In addition, the GI50 in the assay with NCI-H460 was 15.7 µM (inactive); in the assay with K562, 5.33 µM (inactive); in the assay with MCF7 it was 0.971 µM (active); in the assay with NCI-H226 it was 13.2 µM (inactive); in the assay on EKVX, 14.8 µM (inactive); in the assay on HCT-15, 14.9 µM. In the assay with SF-539, the GI50 was 14.6 µM (inactive).

Turning to `COP(=O)(CP(=O)(OC)OCCC(C)CCC=C(C)C)OC` (configuration not stated), the GI50 in the assay with Malme-3M was > 100 µM (inactive); with A549, > 100 µM (inactive); with MDA-MB-231, 19.1 µM (inactive); in the assay with 786-0, > 100 µM (inactive); in the assay on HOP-62 it was 69.7 µM (inactive); with LOX IMVI, > 100 µM (inactive). Also, the GI50 in the assay with CCRF-CEM, with SK-MEL-28, in the assay with SN12C, with SK-OV-3, in the assay on SW-620 and with KM12 was > 100 µM (inactive) each time. Besides, the GI50 with NCI-H460 was > 100 µM (inactive); in the assay on K562, > 100 µM (inactive); in the assay on MCF7, > 100 µM (inactive); in the assay on NCI-H226, > 100 µM (inactive); in the assay with EKVX, > 100 µM (inactive); in the assay on HCT-15 it was above 100 µM. For the same molecule, in the assay with SF-539, the GI50 is > 100 µM (inactive).

Turning to `CC1=C(C)C(=O)C(C2=CC(=O)c3ccccc3C2=O)=C(C2=CC(=O)c3ccccc3C2=O)C1=O`, the GI50 in the assay with Malme-3M was 0.514 µM (active); with A549, 19.4 µM (inactive); with MDA-MB-231, 4.52 µM (inactive); in the assay on 786-0 it was 7.46 µM (inactive); in the assay on HOP-62, 12.4 µM (inactive); with LOX IMVI, 1.39 µM (inactive). In addition, the GI50 in the assay on SK-MEL-28 was 7.62 µM (inactive); with SN12C, 2.61 µM (inactive); in the assay on SK-OV-3 it was 20.2 µM (inactive); with SW-620, 2.79 µM (inactive); with KM12, 10.4 µM (inactive); with NCI-H460, 10.1 µM (inactive). Moreover, the GI50 was 1.88 µM (inactive) in the assay with MCF7; 13.1 µM (inactive) in the assay on NCI-H226; 19.3 µM (inactive) in the assay with EKVX; 0.646 µM with HCT-15; 6.35 µM (inactive) in the assay with SF-539.

Turning to `Nc1nc(Cl)cc(NC23CC4CC(CC(C4)C2)C3)n1`, the GI50 was 44.1 µM (inactive) with Malme-3M; 98.6 µM (inactive) with A549; 94.6 µM (inactive) with MDA-MB-231; > 100 µM (inactive) in the assay with 786-0; > 100 µM (inactive) with HOP-62; > 100 µM (inactive) with CCRF-CEM. Further, the GI50 in the assay with SK-MEL-28, with SN12C, in the assay with SK-OV-3, in the assay with SW-620, with KM12 and with NCI-H460 was > 100 µM (inactive) throughout. Also, the GI50 is > 100 µM (inactive) in the assay on K562; 85.9 µM (inactive) in the assay with MCF7; > 100 µM (inactive) in the assay with RPMI-8226; 76.2 µM (inactive) with NCI-H226; > 100 µM (inactive) with EKVX; 40.6 µM with HCT-15. The GI50 in the assay on SF-539 was 47.9 µM (inactive).

`CCOC(=O)/C=C(\C(=O)OCC)n1cc(C)c(=O)n(Cc2cn(COCCOC(C)=O)nn2)c1=O`: the GI50 was 27.5 µM (inactive) with A549; 20.1 µM (inactive) in the assay on MDA-MB-231; 5.46 µM (inactive) in the assay on 786-0; 20.3 µM (inactive) in the assay on HOP-62; 15.9 µM (inactive) with LOX IMVI; 1.85 µM (inactive) in the assay with CCRF-CEM. The GI50 in the assay on SK-MEL-28 was 10.5 µM (inactive); in the assay with SN12C it was 18.1 µM (inactive); in the assay with SK-OV-3, 71.8 µM (inactive); in the assay with SW-620, 2.94 µM (inactive); in the assay with KM12, 16.2 µM (inactive); with NCI-H460 it was 10.2 µM (inactive). Besides, the GI50 with K562 was 5.69 µM (inactive); with MCF7 it was 6.78 µM (inactive); in the assay on RPMI-8226 it was 5.09 µM (inactive); in the assay with NCI-H226, > 10 µM (inactive); in the assay on EKVX it was 10.5 µM (inactive); in the assay with HCT-15 it was 6.93 µM. In the assay on SF-539, the GI50 is 3.61 µM (inactive).

On to `Cc1ccc(SCC(CSCCO)OCn2cnc3c2N=C(N)NC32OCCO2)cc1` (configuration not stated), for which the GI50 in the assay on Malme-3M, in the assay with A549, in the assay on MDA-MB-231, with 786-0, with HOP-62 and in the assay with LOX IMVI was > 100 µM (inactive) in each case. The GI50 in the assay with CCRF-CEM, in the assay with SK-MEL-28, in the assay on SK-OV-3, with SW-620, with NCI-H460 and with K562 was > 100 µM (inactive) throughout. Also, the GI50 with MCF7 is > 100 µM (inactive); with RPMI-8226 it was > 100 µM (inactive); with EKVX, 83 µM (inactive); in the assay on HCT-15, above 100 µM; in the assay with SF-539 it was > 100 µM (inactive).

Take `CCCCS(=O)(=O)CCC(N)C(=O)O` (configuration not stated): the GI50 in the assay with Malme-3M, with A549, with MDA-MB-231, with 786-0, in the assay on HOP-62 and in the assay with CCRF-CEM was > 100 µM (inactive) throughout. The GI50 in the assay with SK-MEL-28, in the assay on SN12C, in the assay on SK-OV-3, with SW-620, in the assay with KM12 and in the assay with NCI-H460 was > 100 µM (inactive) in each case. The GI50 was > 100 µM (inactive) in the assay on K562; > 100 µM (inactive) with MCF7; > 100 µM (inactive) in the assay on NCI-H226; > 100 µM (inactive) with EKVX; above 100 µM in the assay with HCT-15; > 100 µM (inactive) in the assay on SF-539.
